The values below come from ChEMBL document CHEMBL1157728, “Novel small molecule bradykinin B1 receptor antagonists. Part 2: 5-membered diaminoheterocycles” (Bioorg Med Chem Lett, 2010).

Each structure is given as a SMILES string. pIC50: −log10 of the molar value. Values after ≈ are worked out from the molar mass of the structure shown.

One may read the pIC50 as the IC50 on a negative log10 scale, so that one unit is a factor of ten. A word on the solubility: it is how much of the substance goes into solution per volume. In general, efflux ratio refers to a quotient of directional permeabilities that is used to spot active efflux.

For one series, the target named is T1, B1 bradykinin receptor (Homo sapiens, UniProt P46663).
T1 sequence (P46663 whole entry): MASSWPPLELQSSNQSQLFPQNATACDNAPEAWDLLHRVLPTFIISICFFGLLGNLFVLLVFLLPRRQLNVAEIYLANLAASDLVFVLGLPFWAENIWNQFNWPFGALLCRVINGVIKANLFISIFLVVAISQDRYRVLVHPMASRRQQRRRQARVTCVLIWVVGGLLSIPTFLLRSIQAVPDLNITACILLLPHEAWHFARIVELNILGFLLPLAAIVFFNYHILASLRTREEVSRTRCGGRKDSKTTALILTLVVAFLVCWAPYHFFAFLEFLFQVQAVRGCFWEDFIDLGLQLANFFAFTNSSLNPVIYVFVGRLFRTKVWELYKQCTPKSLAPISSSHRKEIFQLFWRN
The series can be described thus: Antagonist activity at bradykinin B1 receptor in human IMR90 cells pretreated with IL1-beta assessed as inhibition of DAKD-induced calcium mobilization. It is filed as functional, cell-based, IMR-90. A general note: Calcium flux is commonly read through the fluorescence of an indicator in the cells.

Series [1] is described as follows: Solubility of the compound. In kind it is physicochemical.
Series [2] is described as follows: Efflux ratio of permeability from basolateral to apical side to apical to basolateral side in human Caco-2 cells. It is filed as ADME, cell-based. In general terms: Passage across Caco-2 layers is used to estimate intestinal permeability.
A short description of series [3]: Apparent permeability from apical to basolateral side of human Caco-2 cells. It is filed as ADME, cell-based. The following applies: read-out: permeability.
Series [4] is described as follows: Metabolic stability in human liver microsomes assessed as compound remaining after 1 hr. It is filed as ADME, Microsome. The note with it: read-out: Stability.
Series [5] is described as follows: Solubility in aqueous buffer. It is filed as physicochemical.
Series [6] in a line: Solubility in water. It is filed as physicochemical.

With `COC(=O)c1c(F)cccc1-c1ccc(CNc2nc3ccccc3[nH]2)c(F)c1`, the pIC50 on B1 bradykinin receptor is 5.46.

Turning to `COc1cc(C(=O)Nc2nonc2NCc2ccc(-c3cc(Cl)cc(F)c3-c3noc(C)n3)cc2F)on1`, in series [1], the concentration in solution (solubility) came to 12 µM (≈ 6.53 µg/mL). Further, the pIC50 at B1 bradykinin receptor is 9.00. Moreover, the efflux ratio in series [2] is 1. Further, the Papp A→B in series [3] turned out to be 48 ×10⁻⁶ cm/s. Also, in series [4], the remaining at 1 h came to 61%.

Consider `COc1cc(C(=O)Nn2c(NCc3ccc(-c4cc(Cl)cc(F)c4-c4noc(C)n4)cc3F)nc3ccccc32)on1`, for which the solubility in series [5] was 14 µM (≈ 8.29 µg/mL). Also, the pIC50 on B1 bradykinin receptor is 9.15. For the same molecule, in series [2], the efflux ratio is 7.1.

As for `CC(=O)Nc1nsnc1NCc1ccc(-c2cc(Cl)cc(F)c2-c2noc(C)n2)cc1F`, the pIC50 at B1 bradykinin receptor was 8.77.

`CC(=O)Nn1c(NCc2ccc(-c3cc(Cl)cc(F)c3-c3noc(C)n3)cc2F)nc2ccccc21`: the pIC50 at B1 bradykinin receptor was 8.34. Further, in series [6], the solubility was determined as 40 µM (≈ 20.4 µg/mL).

Take `CC(=O)Nn1c(NCc2ccc(-c3cc(Cl)cc(F)c3-c3noc(C)n3)cc2F)nc(C)c1C`: on B1 bradykinin receptor, the negative logarithm of the IC50 (pIC50) was 6.74.

As for `COc1cc(C(=O)Nc2cn[nH]c2NCc2ccc(-c3cc(Cl)cc(F)c3-c3noc(C)n3)cc2F)on1`, the pIC50 on B1 bradykinin receptor was 8.46.

`CC(=O)Nc1nonc1NCc1ccc(-c2cc(Cl)cc(F)c2-c2noc(C)n2)cc1F` had a solubility in series [1] of 21 µM (≈ 9.68 µg/mL). Further, the negative logarithm of the IC50 (pIC50) on B1 bradykinin receptor is 8.11.

Consider `COC(=O)c1c(F)cccc1-c1ccc(CNC(C)=O)c(F)c1`, for which the pIC50 on B1 bradykinin receptor was 4.46.

In the case of `CC(=O)Nn1c(Cl)cnc1NCc1ccc(-c2cc(Cl)cc(F)c2-c2noc(C)n2)cc1F`, the pIC50 on B1 bradykinin receptor was 9.52.

`COC(=O)c1c(F)cccc1-c1ccc(CN2CCCC2=O)c(F)c1`: the pIC50 on B1 bradykinin receptor was 4.38.

Turning to `COc1cc(C(=O)Nn2c(NCc3ccc(-c4cc(Cl)cc(F)c4-c4noc(C)n4)cc3F)nc(C)c2C)on1`, on B1 bradykinin receptor, the pIC50 was 7.07. In series [6], this molecule displayed a solubility of 40 µM (≈ 22.8 µg/mL).

On to `COc1cc(C(=O)Nc2nsnc2NCc2ccc(-c3cc(Cl)cc(F)c3-c3noc(C)n3)cc2F)on1`, for which, on B1 bradykinin receptor, the pIC50 was 9.22.

For the molecule `COc1cc(C(=O)Nn2ccnc2NCc2ccc(-c3cc(Cl)cc(F)c3-c3noc(C)n3)cc2F)on1`, the pIC50 at B1 bradykinin receptor was 8.77. Also, the solubility in series [6] came to 42 µM (≈ 22.8 µg/mL).

Take `COC(=O)c1c(F)cccc1-c1ccc(CN2Cc3ccccc3C2=O)c(F)c1`: the pIC50 on B1 bradykinin receptor was 5.21.

As to `CC(=O)Nn1ccnc1NCc1ccc(-c2cc(Cl)cc(F)c2-c2noc(C)n2)cc1F`, the pIC50 on B1 bradykinin receptor was 8.80.
